Source: paper PMC3317655, “The Isolation and Characterization of β-Glucogallin as a Novel Aldose Reductase Inhibitor from Emblica officinalis” (PLoS ONE, 2012)

What was measured:
[1] = target: T1, human aldose reductase (AKR1B1) (Homo sapiens, UniProt P15121); assay: Ex vivo culture of transgenic mouse lenses expressing human AKR1B1; sorbitol accumulation at […] sorbinil; type: cell-based; conditions: read-out: % inhibition of sorbitol accumulation at 10 μM
[2] = target: T1, human aldose reductase (AKR1B1); assay: Purified recombinant enzyme, NADPH oxidation at […] nm, saturating glucose ([…]) as substrate; type: biochemical

Row | Compound | inhibition at 10 µM [1] [%] | IC50 [2] [µM]
1 | O=C1NC(=O)[C@@]2(CCOc3ccc(F)cc32)N1 [sorbinil] | 97 | 
2 | O=C(O[C@@H]1O[C@H](CO)[C@@H](O)[C@H](O)[C@H]1O)c1cc(O)c(O)c(O)c1 [β-glucogallin] |  | 17 ± 1
